Patent US11492335B2, “Aryl or heteroaryl triazolone derivatives or salts thereof, or pharmaceutical compositions comprising the same” (YUHAN CORPORATION, priority 2018, dated 2022)
Counter-ions that a name gives are not always drawn. Like-named read-outs stand apart in the source and are kept apart here.

How the values were obtained:
Assay type in all cases: biochemical
[1] = biological target: T1, recombinant human MAO-A (monoamine oxidase-A) (Homo sapiens, UniProt P21397); assay: Activity on recombinant human MAO-A, Amplex Red method, 0.5 mM tyramine substrate; settings: 0.5 mM tyramine substrate, read-out: Inhibitory Activity (IC50, nM) MAO-A
T1 construct: purchased Sigma-Aldrich
T1 sequence (P21397 1-527): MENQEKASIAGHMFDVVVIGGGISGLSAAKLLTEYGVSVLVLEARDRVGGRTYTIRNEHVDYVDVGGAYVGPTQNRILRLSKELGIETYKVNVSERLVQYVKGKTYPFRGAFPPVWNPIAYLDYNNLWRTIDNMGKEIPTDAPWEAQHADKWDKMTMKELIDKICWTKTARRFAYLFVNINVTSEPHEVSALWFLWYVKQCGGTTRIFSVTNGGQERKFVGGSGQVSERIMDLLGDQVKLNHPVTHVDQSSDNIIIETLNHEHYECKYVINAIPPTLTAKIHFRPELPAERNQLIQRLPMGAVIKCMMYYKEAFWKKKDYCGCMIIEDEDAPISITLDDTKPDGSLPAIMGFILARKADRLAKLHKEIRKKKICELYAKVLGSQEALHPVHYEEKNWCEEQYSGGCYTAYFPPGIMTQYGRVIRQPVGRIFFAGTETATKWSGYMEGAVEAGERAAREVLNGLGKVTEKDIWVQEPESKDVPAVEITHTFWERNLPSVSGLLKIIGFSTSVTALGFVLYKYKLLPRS
Summary of the method: (§1)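 8-point, 1:3 dose-response, four-parameter logistic IC50 from reduction in fluorescence rate versus DMSO control. HRP/Amplex Red detection of H2O2 (ex 544, em 590 nm) after 30 min, 37 °C compound–enzyme preincubation in pH 7.4 phosphate buffer. MAO-A substrate: 0.5 mM tyramine; MAO-B: 1 mM benzylamine.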

[2] = biological target: T2, recombinant human MAO-B (monoamine oxidase-B) (Homo sapiens, UniProt P27338); assay: Activity on recombinant human MAO-B, Amplex Red method, 1 mM benzylamine substrate; settings: 1 mM benzylamine substrate, read-out: Inhibitory Activity (IC50, nM) MAO-B
T2 construct: purchased Sigma-Aldrich
T2 sequence (P27338 1-520): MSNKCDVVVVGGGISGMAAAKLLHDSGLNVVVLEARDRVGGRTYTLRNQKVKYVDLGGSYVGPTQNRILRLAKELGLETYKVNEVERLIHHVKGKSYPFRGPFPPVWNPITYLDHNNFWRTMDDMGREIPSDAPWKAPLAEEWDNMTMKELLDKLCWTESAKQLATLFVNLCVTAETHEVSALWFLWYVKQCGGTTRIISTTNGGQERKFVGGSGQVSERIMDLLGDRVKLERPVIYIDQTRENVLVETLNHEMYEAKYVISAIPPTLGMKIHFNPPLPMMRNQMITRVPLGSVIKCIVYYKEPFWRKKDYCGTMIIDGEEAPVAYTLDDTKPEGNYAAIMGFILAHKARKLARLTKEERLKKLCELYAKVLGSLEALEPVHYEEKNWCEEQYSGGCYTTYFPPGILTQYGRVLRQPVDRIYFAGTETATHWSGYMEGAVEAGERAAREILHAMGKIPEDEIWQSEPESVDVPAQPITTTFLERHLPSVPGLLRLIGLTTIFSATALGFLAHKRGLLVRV
Summary of the method: as §1

recombinant human VAP-1 = biological target: T3, recombinant human VAP-1 (Homo sapiens, UniProt Q16853); assay: Activity on recombinant human VAP-1, Amplex Red HRP-coupled hydrogen peroxide assay, benzylamine substrate; settings: recombinant human VAP-1, benzylamine substrate; read-out: Inhibitory Activity (IC50, nM) human VAP-1
T3 construct: purchased R&D systems
T3 sequence (Q16853 1-763): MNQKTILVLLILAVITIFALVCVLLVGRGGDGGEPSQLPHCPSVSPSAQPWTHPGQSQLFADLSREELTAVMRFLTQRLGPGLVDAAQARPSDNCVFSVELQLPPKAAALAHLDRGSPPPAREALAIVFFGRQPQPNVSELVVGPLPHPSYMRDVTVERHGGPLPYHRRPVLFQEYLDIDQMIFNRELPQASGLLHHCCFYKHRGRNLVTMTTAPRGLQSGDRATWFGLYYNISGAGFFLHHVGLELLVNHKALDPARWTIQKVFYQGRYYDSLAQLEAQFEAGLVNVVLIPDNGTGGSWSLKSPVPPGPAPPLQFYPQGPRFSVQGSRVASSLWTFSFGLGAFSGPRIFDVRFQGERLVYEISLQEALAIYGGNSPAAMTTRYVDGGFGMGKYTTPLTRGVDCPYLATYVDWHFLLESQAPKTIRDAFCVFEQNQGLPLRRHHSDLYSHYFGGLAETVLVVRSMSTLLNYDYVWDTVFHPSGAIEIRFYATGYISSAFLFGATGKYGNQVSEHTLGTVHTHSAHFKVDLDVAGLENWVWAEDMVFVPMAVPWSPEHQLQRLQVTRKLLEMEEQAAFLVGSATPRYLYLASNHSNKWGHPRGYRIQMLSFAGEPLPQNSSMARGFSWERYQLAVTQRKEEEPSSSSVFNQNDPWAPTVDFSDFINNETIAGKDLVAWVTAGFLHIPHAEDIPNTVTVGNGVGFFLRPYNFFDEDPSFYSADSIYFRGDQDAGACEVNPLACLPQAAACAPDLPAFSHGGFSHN
Summary of the method: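 Compounds were preincubated with purified enzyme in 50 mM sodium phosphate pH 7.4 at 37 °C for 30 min, then 200 uM Amplex Red, 1 mM benzylamine and 1 U/mL HRP were added. Resorufin fluorescence (ex 544/em 590 nm) was followed over 1-2 h; IC50 came from 4-parameter fits of signal-rate inhibition.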

[3] = biological target: T4, recombinant human DAO (diamine oxidase) (Homo sapiens, UniProt P19801); assay: Activity on recombinant human DAO, Amplex Red method, 1 mM putrescine substrate; settings: recombinant human DAO, 1 mM putrescine substrate, read-out: Inhibitory Activity (IC50, nM) DAO
T4 construct: purchased R&D systems
T4 sequence (P19801 20-751): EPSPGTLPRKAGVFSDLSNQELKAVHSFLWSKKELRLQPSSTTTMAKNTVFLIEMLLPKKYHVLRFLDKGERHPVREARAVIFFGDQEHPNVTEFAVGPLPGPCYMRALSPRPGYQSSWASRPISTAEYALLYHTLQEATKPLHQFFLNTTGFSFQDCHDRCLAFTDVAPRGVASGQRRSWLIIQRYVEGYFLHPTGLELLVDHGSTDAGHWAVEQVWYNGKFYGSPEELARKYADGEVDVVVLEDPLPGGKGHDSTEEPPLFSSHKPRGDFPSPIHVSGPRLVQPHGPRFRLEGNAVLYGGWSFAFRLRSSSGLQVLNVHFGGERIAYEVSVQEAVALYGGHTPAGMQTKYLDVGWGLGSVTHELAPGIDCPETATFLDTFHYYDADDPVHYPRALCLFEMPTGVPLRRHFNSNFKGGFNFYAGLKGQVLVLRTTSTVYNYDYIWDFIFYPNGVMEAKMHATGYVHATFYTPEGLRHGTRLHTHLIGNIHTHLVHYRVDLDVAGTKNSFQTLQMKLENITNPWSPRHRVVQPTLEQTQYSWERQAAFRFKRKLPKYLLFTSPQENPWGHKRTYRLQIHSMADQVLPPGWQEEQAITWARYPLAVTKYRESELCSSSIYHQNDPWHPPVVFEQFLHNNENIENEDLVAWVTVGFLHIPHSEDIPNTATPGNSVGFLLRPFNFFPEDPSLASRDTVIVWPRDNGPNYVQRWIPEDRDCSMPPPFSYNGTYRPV
Summary of the method: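 Inhibition of recombinant human DAO (diamine oxidase, R&D systems) was assessed with the Amplex Red Hydrogen Peroxide Assay Kit. Hydrogen peroxide produced from 1 mM putrescine was detected through an HRP-coupled reaction that converts Amplex Red into fluorescent resorufin, read at 544 nm excitation and 590 nm emission. IC50 values came from four-parameter logistic fits in GraphPad Prism.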

IC50 [1] [nM]	IC50 [2] [nM]	IC50 (recombinant human VAP-1) [nM]	IC50 [3] [nM]	IC50 ([3]; bound qualified by footnote * / **) [nM]	SMILES
1510	74	0.21	1.8	–	Cc1cc(-n2cnn(C/C(=C/F)CN)c2=O)ncc1-c1ccc2c(c1)OCO2 [Example 159, 2-[(2E)-2-(aminomethyl)-3-fluoroprop-2-en-1-yl]-4-[5-(1,3-benzodioxol-5-yl)-4-methylpyridin-2-yl]-2,4-dihydro-3H-1,2,4-triazol-3-one]
> 100000	183	0.25	1.4	–	NC/C(=C\F)Cn1ncn(-c2ncc(-c3ccc4sc(N)nc4c3)cc2F)c1=O [Example 164, 4-[5-(2-amino-1,3-benzothiazol-5-yl)-3-fluoropyridin-2-yl]-2-[(2E)-2-(aminomethyl)-3-fluoroprop-2-en-1-yl]-2,4-dihydro-3H-1,2,4-triazol-3-one hydrochloride]
> 100000	> 10000	1.9	< 30	–	CS(=O)(=O)c1ccc(-c2ccnc(-n3cnn(C/C(=C/F)CN)c3=O)c2)cc1 [Example 165, 2-[(2E)-2-(aminomethyl)-3-fluoroprop-2-en-1-yl]-4-{4-[4-(methylsulfonyl)phenyl]pyridin-2-yl}-2,4-dihydro-3H-1,2,4-triazol-3-one]
20700	2420	0.23	< 30	–	CC(=O)Nc1ccc(-c2ccnc(-n3cnn(C/C(=C/F)CN)c3=O)c2)cc1 [Example 166, N-[4-(2-{1-[(2E)-2-(aminomethyl)-3-fluoroprop-2-en-1-yl]-5-oxo-1,5-dihydro-4H-1,2,4-triazol-4-yl}pyridin-4-yl)phenyl]acetamide]
> 100000	159	0.39	< 30	–	CC(=O)Nc1cc(-c2ccnc(-n3cnn(C/C(=C/F)CN)c3=O)c2)ccn1 [Example 168, N-(2′-{1-[(2E)-2-(aminomethyl)-3-fluoroprop-2-en-1-yl]-5-oxo-1,5-dihydro-4H-1,2,4-triazol-4-yl}-4,4′-bipyridin-2-yl)acetamide]

More lines, now with the values behind:

SMILES	IC50 [1] [nM]	IC50 [2] [nM]	IC50 (recombinant human VAP-1) [nM]	IC50 [3] [nM]	IC50 ([3]; bound qualified by footnote * / **) [nM]
Cc1cc(-n2cnn(C/C(=C/F)CN)c2=O)ncc1-c1ccc2cn[nH]c2c1 [Example 160, 2-[(2E)-2-(aminomethyl)-3-fluoroprop-2-en-1-yl]-4-[5-(1H-indazol-6-yl)-4-methylpyridin-2-yl]-2,4-dihydro-3H-1,2,4-triazol-3-one]	46200	137	0.37	< 100	–
Cc1cc(-n2cnn(C/C(=C/F)CN)c2=O)ncc1-c1ccc2sc(N)nc2c1 [Example 161, 4-[5-(2-amino-1,3-benzothiazol-5-yl)-4-methylpyridin-2-yl]-2-[(2E)-2-(aminomethyl)-3-fluoroprop-2-en-1-yl]-2,4-dihydro-3H-1,2,4-triazol-3-one hydrochloride]	6240	3140	6.5	2	–
NC/C(=C\F)Cn1ncn(-c2ncc(-c3ccc4c(c3)OCO4)cc2F)c1=O [Example 162, 2-[(2E)-2-(aminomethyl)-3-fluoroprop-2-en-1-yl]-4-[5-(1,3-benzodioxol-5-yl)-3-fluoropyridin-2-yl]-2,4-dihydro-3H-1,2,4-triazol-3-one hydrochloride]	3140	17	1.6	1.6	–
NC/C(=C\F)Cn1ncn(-c2ncc(-c3ccc4c(c3)NCC4=O)cc2F)c1=O [Example 163, 6-(6-{1-[(2E)-2-(aminomethyl)-3-fluoroprop-2-en-1-yl]-5-oxo-1,5-dihydro-4H-1,2,4-triazol-4-yl}-5-fluoropyridin-3-yl)-1,2-dihydro-3H-indol-3-one]	> 100000	740	0.56	1.3	–
NC/C(=C\F)Cn1ncn(-c2cc(-c3ccc(-c4ccon4)cc3)ccn2)c1=O [Example 167, 2-[(2E)-2-(aminomethyl)-3-fluoroprop-2-en-1-yl]-4-{4-[4-(1,2-oxazol-3-yl)phenyl]pyridin-2-yl}-2,4-dihydro-3H-1,2,4-triazol-3-one]	> 100000	> 10000	1	< 30	–
NC/C(=C\F)Cn1ncn(-c2cc(-c3ccc(N4CCOCC4)nc3)ccn2)c1=O [Example 169, 2-[(2E)-2-(aminomethyl)-3-fluoroprop-2-en-1-yl]-4-[6-(morpholin-4-yl)-3,4′-bipyridin-2′-yl]-2,4-dihydro-3H-1,2,4-triazol-3-one]	> 100000	> 10000	0.28	< 30	–
NC/C(=C\F)Cn1ncn(-c2cc(-c3ccc4c(c3)OCO4)ccn2)c1=O [Example 170, 2-[(2E)-2-(aminomethyl)-3-fluoroprop-2-en-1-yl]-4-[4-(1,3-benzodioxol-5-yl)pyridin-2-yl]-2,4-dihydro-3H-1,2,4-triazol-3-one]	> 100000	235	0.74	–	< 100
